Assay results reported in the supplement of paper PMC4862054.

Columns and labels:
Conditions in all cases: 72 h
DU-4475 [1] = tested on: DU-4475
Procedure, shortened: (§1)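 Seeding of breast cancer cell lines (20 µl suspension) was done into 384-well plates pre-loaded with compound at 5 concentrations, 10-fold apart, covering a compound-specific 10,000-fold range. The plates were incubated for 72 h, read for CellTox Green fluorescence (485/520 nm), and then read for CellTiter-Glo luminescence after 10 min at room temperature. Every plate was normalised to 0.1 % DMSO and a positive kill control. Curve fitting gave the EC50, censored at the top concentration.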

Hs578T [2] = tested on: Hs578T
Procedure, shortened: as §1

HCC1599 [3] = tested on: HCC1599
Procedure, shortened: as §1

HCC1937 [4] = tested on: HCC1937
Procedure, shortened: as §1

MDA-MB-436 [5] = tested on: MDA-MB-436
Procedure, shortened: as §1

MDA-MB-453 [6] = tested on: MDA-MB-453
Procedure, shortened: as §1

HDQ-P1 [7] = tested on: HDQ-P1
Procedure, shortened: as §1

CAL-120 [8] = tested on: CAL-120
Procedure, shortened: as §1

BT-474 [9] = tested on: BT-474
Procedure, shortened: as §1

MFM-223 [10] = tested on: MFM-223
Procedure, shortened: as §1

BT-549 [11] = tested on: BT-549
Procedure, shortened: as §1

CAL-148 [12] = tested on: CAL-148
Procedure, shortened: as §1

HCC1143 [13] = tested on: HCC1143
Procedure, shortened: as §1

MCF-10A [14] = tested on: MCF-10A
Procedure, shortened: as §1

MDA-MB-468 [15] = tested on: MDA-MB-468
Procedure, shortened: as §1

CAL-85-1 [16] = tested on: CAL-85-1
Procedure, shortened: as §1

DU-4475 [17] = tested on: DU-4475; remark: listed apart in the source
Procedure, shortened: as §1

Hs578T [18] = tested on: Hs578T; remark: listed apart in the source
Procedure, shortened: as §1

HCC1599 [19] = tested on: HCC1599; remark: listed apart in the source
Procedure, shortened: as §1

HCC1937 [20] = tested on: HCC1937; remark: listed apart in the source
Procedure, shortened: as §1

MDA-MB-436 [21] = tested on: MDA-MB-436; remark: listed apart in the source
Procedure, shortened: as §1

SK-BR-3 [22] = tested on: SK-BR-3
Procedure, shortened: as §1

MDA-MB-453 [23] = tested on: MDA-MB-453; remark: listed apart in the source
Procedure, shortened: as §1

HDQ-P1 [24] = tested on: HDQ-P1; remark: listed apart in the source
Procedure, shortened: as §1

CAL-120 [25] = tested on: CAL-120; remark: listed apart in the source
Procedure, shortened: as §1

BT-474 [26] = tested on: BT-474; remark: listed apart in the source
Procedure, shortened: as §1

CAL-51 = tested on: CAL-51
Procedure, shortened: as §1

MFM-223 [27] = tested on: MFM-223; remark: listed apart in the source
Procedure, shortened: as §1

BT-549 [28] = tested on: BT-549; remark: listed apart in the source
Procedure, shortened: as §1

CAL-148 [29] = tested on: CAL-148; remark: listed apart in the source
Procedure, shortened: as §1

HCC1143 [30] = tested on: HCC1143; remark: listed apart in the source
Procedure, shortened: as §1

MDA-MB-231 [31] = tested on: MDA-MB-231
Procedure, shortened: as §1

MCF-10A [32] = tested on: MCF-10A; remark: listed apart in the source
Procedure, shortened: as §1

CAL-85-1 [33] = tested on: CAL-85-1; remark: listed apart in the source
Procedure, shortened: as §1

Hs578T [34] = tested on: Hs578T; remark: listed apart in the source
Procedure, shortened: (§2)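 Compound dissolved in 5 µl medium was placed in 384-well plates before 20 µl of breast cancer cell suspension was added, and the plates were incubated for 72 h. Cells then received 2.5 µl CellTiter-Blue for 2 h at 37 °C, and fluorescence was read at 560/590 nm. EC50 values come from percent-inhibition dose-response fits that were censored at the highest concentration, with plates normalised to vehicle and a positive kill control and rows with a zero drug sensitivity score excluded.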

HCC1599 [35] = tested on: HCC1599; remark: listed apart in the source
Procedure, shortened: as §2

HCC1937 [36] = tested on: HCC1937; remark: listed apart in the source
Procedure, shortened: as §2

MDA-MB-436 [37] = tested on: MDA-MB-436; remark: listed apart in the source
Procedure, shortened: as §2

SK-BR-3 [38] = tested on: SK-BR-3; remark: listed apart in the source
Procedure, shortened: as §2

CAL-120 [39] = tested on: CAL-120; remark: listed apart in the source
Procedure, shortened: as §2

BT-474 [40] = tested on: BT-474; remark: listed apart in the source
Procedure, shortened: as §2

MFM-223 [41] = tested on: MFM-223; remark: listed apart in the source
Procedure, shortened: as §2

BT-549 [42] = tested on: BT-549; remark: listed apart in the source
Procedure, shortened: as §2

HCC1143 [43] = tested on: HCC1143; remark: listed apart in the source
Procedure, shortened: as §2

MDA-MB-231 [44] = tested on: MDA-MB-231; remark: listed apart in the source
Procedure, shortened: as §2

MDA-MB-468 [45] = tested on: MDA-MB-468; remark: listed apart in the source
Procedure, shortened: as §2

CAL-148 [46] = tested on: CAL-148; remark: listed apart in the source
Procedure, shortened: as §2

EC50, CellTiter-Glo (HCC1599 [19]): 7.29 nM
EC50, CellTiter-Glo (HCC1937 [20]): 11.2 nM
EC50, CellTiter-Glo (MDA-MB-436 [21]): 3.9 nM
EC50, CellTiter-Glo (SK-BR-3 [22]): 16.8 nM
EC50, CellTiter-Glo (MDA-MB-453 [23]): 25.2 nM
EC50, CellTiter-Glo (BT-474 [26]): 4.16 nM
EC50, CellTiter-Glo (BT-549 [28]): 65.5 nM
EC50, CellTiter-Glo (HCC1143 [30]): 11.4 nM
EC50, CellTiter-Glo (MDA-MB-231 [31]): 8.02 nM
EC50, CellTiter-Blue viability (HCC1599 [35]): 12 nM
EC50, CellTiter-Blue viability (HCC1937 [36]): 4.46 nM
EC50, CellTiter-Blue viability (MDA-MB-436 [37]): 7.68 nM
EC50, CellTiter-Blue viability (SK-BR-3 [38]): 8.44 nM
EC50, CellTiter-Blue viability (BT-474 [40]): 19.4 nM
EC50, CellTiter-Blue viability (BT-549 [42]): 50.8 nM
EC50, CellTiter-Blue viability (HCC1143 [43]): 26.2 nM
EC50, CellTiter-Blue viability (MDA-MB-231 [44]): 2.85 nM
EC50, CellTiter-Blue viability (MDA-MB-468 [45]): 2.99 nM
Compound: COCC[n+]1c2c(n(Cc3cnccn3)c1C)C(=O)c1ccccc1C2=O [YM155]
EC50, CellTox Green (DU-4475 [1]): 418 nM
EC50, CellTox Green (Hs578T [2]): 2600 nM
EC50, CellTox Green (HCC1599 [3]): 58.5 nM
EC50, CellTox Green (HCC1937 [4]): 24.8 nM
EC50, CellTox Green (MDA-MB-436 [5]): 24.2 nM
EC50, CellTox Green (MDA-MB-453 [6]): 347 nM
EC50, CellTox Green (HDQ-P1 [7]): 33 nM
EC50, CellTox Green (CAL-120 [8]): 6.34 nM
EC50, CellTox Green (BT-474 [9]): 17.9 nM
EC50, CellTox Green (MFM-223 [10]): 836 nM
EC50, CellTox Green (BT-549 [11]): 272 nM
EC50, CellTox Green (CAL-148 [12]): 34.2 nM
EC50, CellTox Green (HCC1143 [13]): 1.59 nM
EC50, CellTox Green (MCF-10A [14]): 12.8 nM
EC50, CellTox Green (MDA-MB-468 [15]): 9.24 nM
EC50, CellTox Green (CAL-85-1 [16]): 5.8 nM
EC50, CellTiter-Glo (DU-4475 [17]): 57.8 nM
EC50, CellTiter-Glo (Hs578T [18]): 212 nM
EC50, CellTiter-Glo (HDQ-P1 [24]): 17.3 nM
EC50, CellTiter-Glo (CAL-120 [25]): 3.32 nM
EC50, CellTiter-Glo (CAL-51): 16.6 nM
EC50, CellTiter-Glo (MFM-223 [27]): 27.2 nM
EC50, CellTiter-Glo (CAL-148 [29]): 19.9 nM
EC50, CellTiter-Glo (MCF-10A [32]): 27.1 nM
EC50, CellTiter-Glo (CAL-85-1 [33]): 5.5 nM
EC50, CellTiter-Blue viability (Hs578T [34]): 102 nM
EC50, CellTiter-Blue viability (CAL-120 [39]): 3.68 nM
EC50, CellTiter-Blue viability (MFM-223 [41]): 17.3 nM
EC50, CellTiter-Blue viability (CAL-148 [46]): 11.6 nM
